The conditions of series [1]: human gut metagenome, 24 h, 2 µM.
The conditions of series [2]: human gut metagenome, 24 h, 2 µM. This is another data set of the same source.
Series [3] is described as follows: The drug is tested on Z-014 corresponding to rat gut metagenome with ENA study accession number: PRJEB37062 and ENA sample accession number: ERS12561814 for biotransformation under anaerobic condition. The drug concentrations were measured over 9 timepoints collected between 0 and 24 hours of incubation by liquid-chromatography-coupled mass spectrometry (LC–MS). To be noted: 2 µM.

A short description of series [4]: The drug is tested on WLS-086 corresponding to human gut metagenome with ENA study accession number: PRJEB37062 and ENA sample accession number: ERS12561752 for biotransformation under anaerobic condition. The drug concentrations were measured over 9 timepoints collected between 0 and 24 hours of incubation by liquid-chromatography-coupled mass spectrometry (LC–MS). To be noted: 2 µM.

The conditions of series [5]: human gut metagenome, 24 h, 2 µM. This is another data set of the same source.
The conditions of series [6]: human gut metagenome, 24 h, 2 µM. The source holds these as a separate data set.
The conditions of series [7]: human gut metagenome, 24 h, 2 µM. The source holds these as a separate data set.
Series [8] in a line: The drug is tested on WLS-007 corresponding to human gut metagenome with ENA study accession number: PRJEB37062 and ENA sample accession number: ERS12561742 for biotransformation under anaerobic condition. The drug concentrations were measured over 9 timepoints collected between 0 and 24 hours of incubation by liquid-chromatography-coupled mass spectrometry (LC–MS). To be noted: 2 µM.

Series [9] is described as follows: The drug is tested on WLS-052 corresponding to human gut metagenome with ENA study accession number: PRJEB37062 and ENA sample accession number: ERS12561747 for biotransformation under anaerobic condition. The drug concentrations were measured over 9 timepoints collected between 0 and 24 hours of incubation by liquid-chromatography-coupled mass spectrometry (LC–MS). To be noted: 2 µM.

The nature of series [10]: The drug is tested on Z-019 corresponding to rat gut metagenome with ENA study accession number: PRJEB37062 and ENA sample accession number: ERS12561818 for biotransformation under anaerobic condition. The drug concentrations were measured over 9 timepoints collected between 0 and 24 hours of incubation by liquid-chromatography-coupled mass spectrometry (LC–MS). To be noted: 2 µM.

A short description of series [11]: The drug is tested on Z-003 corresponding to pig gut metagenome with ENA study accession number: PRJEB37062 and ENA sample accession number: ERS12561803 for biotransformation under anaerobic condition. The drug concentrations were measured over 9 timepoints collected between 0 and 24 hours of incubation by liquid-chromatography-coupled mass spectrometry (LC–MS). To be noted: 2 µM.

Series [12] in a line: The drug is tested on Z-027 corresponding to metagenome with ENA study accession number: PRJEB37062 and ENA sample accession number: ERS12561826 for biotransformation under anaerobic condition. The drug concentrations were measured over 9 timepoints collected between 0 and 24 hours of incubation by liquid-chromatography-coupled mass spectrometry (LC–MS). To be noted: 2 µM.

The nature of series [13]: The drug is tested on Z-008 corresponding to metagenome with ENA study accession number: PRJEB37062 and ENA sample accession number: ERS12561808 for biotransformation under anaerobic condition. The drug concentrations were measured over 9 timepoints collected between 0 and 24 hours of incubation by liquid-chromatography-coupled mass spectrometry (LC–MS). To be noted: 2 µM.

Series [14] is described as follows: The drug is tested on Z-020 corresponding to rabbit gut metagenome with ENA study accession number: PRJEB37062 and ENA sample accession number: ERS12561819 for biotransformation under anaerobic condition. The drug concentrations were measured over 9 timepoints collected between 0 and 24 hours of incubation by liquid-chromatography-coupled mass spectrometry (LC–MS). As to conditions: 2 µM.

Series [15] in a line: The drug is tested on Z-002 corresponding to rabbit gut metagenome with ENA study accession number: PRJEB37062 and ENA sample accession number: ERS12561802 for biotransformation under anaerobic condition. The drug concentrations were measured over 9 timepoints collected between 0 and 24 hours of incubation by liquid-chromatography-coupled mass spectrometry (LC–MS). To be noted: 2 µM.

The conditions of series [16]: human gut metagenome, 24 h, 2 µM. This is another data set of the same source.
Series [17] can be described thus: The drug is tested on Z-023 corresponding to metagenome with ENA study accession number: PRJEB37062 and ENA sample accession number: ERS12561822 for biotransformation under anaerobic condition. The drug concentrations were measured over 9 timepoints collected between 0 and 24 hours of incubation by liquid-chromatography-coupled mass spectrometry (LC–MS). To be noted: 2 µM.

The nature of series [18]: The drug is tested on Z-010 corresponding to metagenome with ENA study accession number: PRJEB37062 and ENA sample accession number: ERS12561810 for biotransformation under anaerobic condition. The drug concentrations were measured over 9 timepoints collected between 0 and 24 hours of incubation by liquid-chromatography-coupled mass spectrometry (LC–MS). As to conditions: 2 µM.

Series [19] can be described thus: The drug is tested on WLS-069 corresponding to human gut metagenome with ENA study accession number: PRJEB37062 and ENA sample accession number: ERS12561748 for biotransformation under anaerobic condition. The drug concentrations were measured over 9 timepoints collected between 0 and 24 hours of incubation by liquid-chromatography-coupled mass spectrometry (LC–MS). To be noted: 2 µM.

For series [20] the following is noted: human gut metagenome, 24 h, 2 µM. This is another data set of the same source.
Further: call rule not given here.

Take `CC(C)(C)N.CCC[C@H](N[C@@H](C)C(=O)N1[C@H](C(=O)O)C[C@@H]2CCCC[C@@H]21)C(=O)OCC` [PERINDOPRIL ERBUMINE]: the “Bacterial Biotransformation” value is “Compound metabolized” in [1]; “Compound NOT metabolized” in series [2]; “Compound NOT metabolized” in [3]; “Compound metabolized” in [4]; “Compound metabolized” in [5]; “Compound metabolized” in [6]. The “Bacterial Biotransformation” value was “Compound metabolized” in series [7]; “Compound metabolized” in series [8]; “Compound NOT metabolized” in series [9]; “Compound NOT metabolized” in series [10]; “Compound metabolized” in [11]; “Compound NOT metabolized” in [12]. For the same compound, the “Bacterial Biotransformation” value is “Compound NOT metabolized” in series [13]; “Compound metabolized” in [14]; “Compound metabolized” in series [15]; “Compound metabolized” in [16]; “Compound metabolized” in series [17]; “Compound metabolized” in series [18]. In addition, the “Bacterial Biotransformation” value was “Compound metabolized” in series [19] and “Compound NOT metabolized” in [20].
Turning to `COC(=O)C(c1ccccc1)C1CCCCN1` (stereo not given) [METHYLPHENIDATE], the “Bacterial Biotransformation” value is recorded as “Compound metabolized” in series [1]; “Compound NOT metabolized” in [2]; “Compound NOT metabolized” in series [3]; “Compound NOT metabolized” in series [4]; “Compound metabolized” in series [5]; “Compound NOT metabolized” in series [6]. For the same compound, the “Bacterial Biotransformation” value is reported as “Compound metabolized” in series [7]; “Compound NOT metabolized” in series [8]; “Compound NOT metabolized” in series [9]; “Compound NOT metabolized” in [10]; “Compound metabolized” in series [11]; “Compound NOT metabolized” in series [12]. Also, the “Bacterial Biotransformation” value in [13] is listed as “Compound NOT metabolized”; in [14] it was “Compound NOT metabolized”; in series [15], “Compound metabolized”; in series [16], “Compound NOT metabolized”; in [17], “Compound metabolized”; in [18] it was “Compound NOT metabolized”. The “Bacterial Biotransformation” value in [19] and in series [20] was “Compound NOT metabolized” each time.
`COc1cc2nc(N3CCN(C(=O)C4COc5ccccc5O4)CC3)nc(N)c2cc1OC.CS(=O)(=O)O` (stereo not given) [DOXAZOSIN MESYLATE]: the “Bacterial Biotransformation” value in [1] is on record as “Compound metabolized”; in series [2] it was “Compound metabolized”; in series [3], “Compound NOT metabolized”; in series [4], “Compound metabolized”; in series [5], “Compound metabolized”; in series [6], “Compound metabolized”. Moreover, the “Bacterial Biotransformation” value is “Compound metabolized” in series [7]; “Compound metabolized” in [8]; “Compound NOT metabolized” in series [9]; “Compound NOT metabolized” in series [10]; “Compound NOT metabolized” in [11]; “Compound NOT metabolized” in series [12]. Besides, the “Bacterial Biotransformation” value in series [13] is recorded as “Compound NOT metabolized”; in series [14] it was “Compound NOT metabolized”; in series [15] it was “Compound NOT metabolized”; in [16] it was “Compound NOT metabolized”; in series [17], “Compound metabolized”; in series [18], “Compound metabolized”. Moreover, the “Bacterial Biotransformation” value in [19] was “Compound metabolized”; in series [20], “Compound NOT metabolized”.
For `CCCN1C[C@H](CSC)C[C@@H]2c3cccc4[nH]cc(c34)C[C@H]21.CS(=O)(=O)O` [PERGOLIDE MESYLATE], the “Bacterial Biotransformation” value is recorded as “Compound NOT metabolized” in series [1]; “Compound NOT metabolized” in series [2]; “Compound NOT metabolized” in series [3]; “Compound metabolized” in series [4]; “Compound NOT metabolized” in series [5]; “Compound NOT metabolized” in series [6]. For the same compound, the “Bacterial Biotransformation” value in [7], in series [8], in series [9], in series [10], in series [11] and in series [12] was “Compound NOT metabolized” in each case. Besides, the “Bacterial Biotransformation” value in series [13], in [14], in series [15], in series [16], in series [17] and in series [18] was “Compound NOT metabolized” each time. Further, the “Bacterial Biotransformation” value in series [19] and in series [20] was “Compound NOT metabolized” in each case.
As for `CCCC(C)(COC(N)=O)COC(=O)NC(C)C` (stereo not given) [CARISOPRODOL], the “Bacterial Biotransformation” value in series [1] is reported as “Compound metabolized”; in [2] it was “Compound metabolized”; in [3], “Compound metabolized”; in [4], “Compound metabolized”; in series [5] it was “Compound NOT metabolized”; in [6] it was “Compound metabolized”. In addition, the “Bacterial Biotransformation” value in series [7] is given as “Compound metabolized”; in [8] it was “Compound metabolized”; in series [9], “Compound metabolized”; in series [10], “Compound NOT metabolized”; in series [11], “Compound metabolized”; in [12], “Compound metabolized”. The “Bacterial Biotransformation” value in series [13], in series [14], in series [15], in series [16], in series [17] and in series [18] was “Compound metabolized” throughout. Also, the “Bacterial Biotransformation” value in series [19] and in series [20] was “Compound metabolized” each time.
